According to patent US11458138B2 (Novartis AG, priority 2017, dated 2022):

Columns and labels:
[1] = system: Phospho-YAP (SER127) in HaCaT cells; test: pYAP HTRF Assay (HaCaT Cells); assay type: cell-based, human; conditions: 2 hours
Protocol: The pYAP HTRF assay was performed using the Phospho-YAP (SER127) 10000 test kit (CisBio, catalogue number 64YAPPEH) according to manufacturer's instructions. Briefly, HaCaT cells were suspended at 1.1×10^6 cells/mL in DMEM (no phenol red)+10% FBS with penicillin-streptomycin-glutamine. 5 μL of cells were dispensed into 1536 well white solid bottom, tissue culture treated plates (5500 cells/well), and incubated for 48 hours at 37° C. 50 nL test compound was transferred into the assay plates containing HaCaT cells using Pintool (GNF) and incubated for 2 hours. […] The plates were incubated overnight (20 hrs) at room temperature covered with metal lids. Plates were read on Pherastar (BMG Labtech) for HTRF (665 nm/620 nm).

LATS1 = LATS1 (Homo sapiens (Human), UniProt O95835); test: LATS1 biochemical assay (Table 1A, Compound Examples 1-290; method in the earlier part)
[2] = system: YAP nuclear translocation in HaCaT cells; test: YAP Translocation Assay (HaCaT Cells); assay type: cell-based, human; conditions: 24 hours
In short: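 HaCaT cells (20,000/well) in DMEM + 10% FBS were plated overnight at 37° C, then exposed to compound for 24 h at 37° C. Cells were fixed with PFA, permeabilized with 0.1% Triton/1.5% BSA and imaged by high-content imaging.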

Chain of LATS1 (O95835 whole entry, looked up): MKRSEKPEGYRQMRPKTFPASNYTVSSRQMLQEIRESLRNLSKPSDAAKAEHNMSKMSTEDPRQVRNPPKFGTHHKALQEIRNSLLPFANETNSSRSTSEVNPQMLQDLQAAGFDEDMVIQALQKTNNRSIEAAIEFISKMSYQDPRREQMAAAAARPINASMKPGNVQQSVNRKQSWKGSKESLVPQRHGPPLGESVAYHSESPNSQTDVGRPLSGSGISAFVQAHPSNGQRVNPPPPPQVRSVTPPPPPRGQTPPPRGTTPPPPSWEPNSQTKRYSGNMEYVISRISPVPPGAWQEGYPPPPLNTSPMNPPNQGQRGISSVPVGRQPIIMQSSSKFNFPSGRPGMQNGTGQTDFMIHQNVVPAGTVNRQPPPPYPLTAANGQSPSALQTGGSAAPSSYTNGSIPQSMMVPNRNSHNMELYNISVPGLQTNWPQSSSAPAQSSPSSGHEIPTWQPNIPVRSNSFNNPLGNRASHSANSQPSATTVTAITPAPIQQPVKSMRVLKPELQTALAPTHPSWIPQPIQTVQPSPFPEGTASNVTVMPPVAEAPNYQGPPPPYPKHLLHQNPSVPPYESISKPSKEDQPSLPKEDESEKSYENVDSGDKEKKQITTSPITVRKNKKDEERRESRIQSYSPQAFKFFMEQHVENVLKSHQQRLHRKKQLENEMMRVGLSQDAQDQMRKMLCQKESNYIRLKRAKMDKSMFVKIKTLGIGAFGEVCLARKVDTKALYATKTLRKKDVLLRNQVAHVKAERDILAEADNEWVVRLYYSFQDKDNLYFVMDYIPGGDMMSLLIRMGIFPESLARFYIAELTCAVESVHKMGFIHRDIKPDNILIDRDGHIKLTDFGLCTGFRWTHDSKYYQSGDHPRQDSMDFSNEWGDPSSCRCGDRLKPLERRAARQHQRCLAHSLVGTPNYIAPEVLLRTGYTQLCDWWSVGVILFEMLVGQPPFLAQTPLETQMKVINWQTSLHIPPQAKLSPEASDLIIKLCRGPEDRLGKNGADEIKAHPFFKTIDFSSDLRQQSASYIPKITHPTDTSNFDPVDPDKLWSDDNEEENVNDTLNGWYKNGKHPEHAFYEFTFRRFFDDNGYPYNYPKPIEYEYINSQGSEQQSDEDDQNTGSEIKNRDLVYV
Chain of LATS1 (Q7L9L4 whole entry partner, looked up): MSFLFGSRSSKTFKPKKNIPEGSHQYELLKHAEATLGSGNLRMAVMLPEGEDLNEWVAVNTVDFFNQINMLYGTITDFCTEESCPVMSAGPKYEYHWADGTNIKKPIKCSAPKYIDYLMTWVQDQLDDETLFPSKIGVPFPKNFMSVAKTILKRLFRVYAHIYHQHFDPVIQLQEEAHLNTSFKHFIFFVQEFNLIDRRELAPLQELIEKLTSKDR

| SMILES | IC50 ([1]; Homo sapiens) [µM] | IC50 (LATS1) [µM] | EC50 ([2]; Homo sapiens) [µM] | IC50 [1] [µM] | EC50 [2] [µM] |
| --- | --- | --- | --- | --- | --- |
| CCCCNc1nc(-c2ccncc2)nc2cnccc12 [Example 19, N-butyl-2-(pyridin-4-yl)pyrido[3,4-d]pyrimidin-4-amine] | 24.8 | 0.006 | 17.6 |  |  |
| CC1(Nc2nc(-c3ccncc3C#N)nc3cnccc23)CC1 [Example 141, 4-{4-[(1-methylcyclopropyl)amino]pyrido[3,4-d]pyrimidin-2-yl}pyridine-3-carbonitrile] | 13.6 | 0.004 | > 10 |  |  |
| C[C@H]1CCC[C@H]1Nc1nc(-c2ccncc2)nc2cnccc12 (single isomer, unassigned) [Example 17a] | 4.95 | 0.003 | 4.1 |  |  |
| CC1CCCCN1CC(C)(C)Nc1nc(-c2ccncc2)nc2cnccc12 (stereo not drawn) [Example 108, N-[2-methyl-1-(2-methylpiperidin-1-yl)propan-2-yl]-2-(pyridin-4-yl)pyrido[3,4-d]pyrimidin-4-amine] | 11.8 | 0.027 | > 19.3 |  |  |
| FC(F)(F)C(Cc1ccccc1)Nc1nc(-c2ccncc2)nc2cnccc12 (stereo not drawn) [Example 38, 2-(pyridin-4-yl)-N-(1,1,1-trifluoro-3-phenylpropan-2-yl)pyrido[3,4-d]pyrimidin-4-amine] | > 10 | 0.24 | > 20 |  |  |
| CC(C)(C)Nc1nc(-c2ccncc2)nc2cncc(NCCOCCO)c12 [Example 253] | 16.7 | 0.085 | > 20 |  |  |
| CC(C)(CCc1ccccc1)Nc1nc(-c2ccncc2)nc2cnccc12 [Example 20, N-(2-methyl-4-phenylbutan-2-yl)-2-(pyridin-4-yl)pyrido[3,4-d]pyrimidin-4-amine] | 1.77 | 0.006 | 5.18 |  |  |
| C[C@@H]1CCC[C@@H]1Nc1nc(-c2ccncc2)nc2cnccc12 (single isomer, unassigned) [Example 17b] | 0.765 | 0.0009 | 1.22 |  |  |
| OCC1(Nc2nc(-c3ccncc3)nc3cnccc23)CCCC1 [Example 51, (1-{[2-(pyridin-4-yl)pyrido[3,4-d]pyrimidin-4-yl]amino}cyclopentyl)methanol] | 57.8 | 0.006 | 4.39 |  |  |
| CC1(Nc2nc(-c3ccncn3)nc3cnccc23)CC1 [Example 159, N-(1-methylcyclopropyl)-2-(pyrimidin-4-yl)pyrido[3,4-d]pyrimidin-4-amine] | > 10 | 0.016 | > 20 |  |  |
| CC(C)(Nc1nc(-c2ccncc2)nc2cnccc12)c1ccccc1 [Example 81, N-(2-phenylpropan-2-yl)-2-(pyridin-4-yl)pyrido[3,4-d]pyrimidin-4-amine] | 42.8 | 0.011 | 17 |  |  |
| CC1(Nc2nc(-c3ccnnc3)nc3cnccc23)CC1 [Example 174, N-(1-methylcyclopropyl)-2-(pyridazin-4-yl)pyrido[3,4-d]pyrimidin-4-amine] | > 10 | 0.197 | > 20 |  |  |
| CC(O)C(C)(C)Nc1nc(-c2ccncc2)nc2cnccc12 (stereo not drawn) [Example 18, 3-methyl-3-{[2-(pyridin-4-yl)pyrido[3,4-d]pyrimidin-4-yl]amino}butan-2-ol] | 1.52 | 0.006 | 3.46 |  |  |
| Cn1cc(-c2nc(NC3(C)CC3)c3ccncc3n2)cn1 [Example 196, 2-(1-methyl-1H-pyrazol-4-yl)-N-(1-methylcyclopropyl)pyrido[3,4-d]pyrimidin-4-amine] | > 10 | > 2.5 | > 20 |  |  |
| CC(C)(Cc1ccc(F)cc1)Nc1nc(-c2ccncc2)nc2cnccc12 [Example 80, N-[1-(4-fluorophenyl)-2-methylpropan-2-yl]-2-(pyridin-4-yl)pyrido[3,4-d]pyrimidin-4-amine] | 21.6 | 0.011 | 12.9 |  |  |
| CCNc1nc(-c2ccncc2)nc2cnccc12 [Example 13, N-ethyl-2-(pyridin-4-yl)pyrido[3,4-d]pyrimidin-4-amine] | 13.5 | 0.004 | 8.51 |  |  |
| CC1(Nc2nc(-c3ccc4[nH]ncc4c3)nc3cnccc23)CC1 [Example 143, 2-(1H-indazol-5-yl)-N-(1-methylcyclopropyl)pyrido[3,4-d]pyrimidin-4-amine] | > 10 | 0.007 | > 20 |  |  |
| CCC(CO)Nc1nc(-c2ccncc2)nc2cnccc12 (stereo not drawn) [Example 78, 2-{[2-(pyridin-4-yl)pyrido[3,4-d]pyrimidin-4-yl]amino}butan-1-ol] | 12.1 | 0.011 | 14.3 |  |  |

| SMILES | IC50 ([1]; Homo sapiens) [µM] | IC50 (LATS1) [µM] | EC50 ([2]; Homo sapiens) [µM] | IC50 [1] [µM] | EC50 [2] [µM] |
| --- | --- | --- | --- | --- | --- |
| OC1(CNc2nc(-c3ccncc3)nc3cnccc23)CCCC1 [Example 87, 1-({[2-(pyridin-4-yl)pyrido[3,4-d]pyrimidin-4-yl]amino}methyl)cyclopentan-1-ol] | 51.6 | 0.03 | > 20 |  |  |
| Cc1noc(C)c1-c1nc(NC2(C)CC2)c2ccncc2n1 [Example 153, 2-(dimethyl-1,2-oxazol-4-yl)-N-(1-methylcyclopropyl)pyrido[3,4-d]pyrimidin-4-amine] | > 10 | > 5 | > 20 |  |  |
| O=C(O)C1(Nc2nc(-c3ccncc3)nc3cnccc23)CCC1 [Example 56, 1-{[2-(pyridin-4-yl)pyrido[3,4-d]pyrimidin-4-yl]amino}cyclobutane-1-carboxylic acid] | > 10 | 1.16 | > 20 |  |  |
| COCC(C)(C)Nc1nc(-c2ccncc2Cl)nc2cnccc12 [Example 124, 2-(3-chloropyridin-4-yl)-N-(1-methoxy-2-methylpropan-2-yl)pyrido[3,4-d]pyrimidin-4-amine] | 8.01 | 0.022 | 12 |  |  |
| Cc1[nH]c2ncccc2c1-c1nc(NC(C)(C)C)c2ccncc2n1 [Example 114, N-tert-butyl-2-{2-methyl-1H-pyrrolo[2,3-b]pyridin-3-yl}pyrido[3,4-d]pyrimidin-4-amine] | 0.565 | 0.002 | 1.33 |  |  |
| CC1CCCC1Nc1nc(-c2ccncc2)nc2cnccc12 (single isomer, unassigned) [Example 17c] |  | 0.003 |  | 4.28 | 4.68 |
| Cc1n[nH]c(C)c1-c1nc(NC(C)(C)CC(C)(C)O)c2ccncc2n1 [Example 160, 4-{[2-(3,5-dimethyl-1H-pyrazol-4-yl)pyrido[3,4-d]pyrimidin-4-yl]amino}-2,4-dimethylpentan-2-ol] | 6.8 | 0.024 | > 20 |  |  |
| CCN(c1nc(-c2ccncc2C)nc2cnccc12)C(C)C [Example 123, N-ethyl-2-(3-methylpyridin-4-yl)-N-(propan-2-yl)pyrido[3,4-d]pyrimidin-4-amine] | 9.45 | 0.018 | 9.2 |  |  |
| CC1CCCC1Nc1nc(-c2ccncc2)nc2cnccc12 (single isomer, unassigned) [Example 17d] |  | 0.001 |  | 0.402 | 1.72 |
| CC1(Nc2nc(-c3cnco3)nc3cnccc23)CC1 [Example 175, N-(1-methylcyclopropyl)-2-(1,3-oxazol-5-yl)pyrido[3,4-d]pyrimidin-4-amine] | > 10 | 0.324 | > 20 |  |  |
| CC(C)(Nc1nc(-c2c[nH]nc2C(F)(F)F)nc2cnccc12)C(F)(F)F [Example 145, N-(1,1,1-trifluoro-2-methylpropan-2-yl)-2-[3-(trifluoromethyl)-1H-pyrazol-4-yl]pyrido[3,4-d]pyrimidin-4-amine] | > 100 | 0.012 | 9.31 |  |  |
| Fc1ccccc1Nc1nc(-c2ccncc2)nc2cnccc12 [Example 82, N-(2-fluorophenyl)-2-(pyridin-4-yl)pyrido[3,4-d]pyrimidin-4-amine] | > 100 | 0.013 | > 20 |  |  |
| CC(C)(COC(C)(C)C)Nc1nc(-c2ccncc2)nc2cnccc12 [Example 75, N-[1-(tert-butoxy)-2-methylpropan-2-yl]-2-(pyridin-4-yl)pyrido[3,4-d]pyrimidin-4-amine] | 3.8 | 0.008 | 6.91 |  |  |
| C#CC(C)(C)Nc1nc(-c2ccncc2)nc2cnccc12 [Example 69, N-(2-methylbut-3-yn-2-yl)-2-(pyridin-4-yl)pyrido[3,4-d]pyrimidin-4-amine] | 4.72 | 0.003 | 11.5 |  |  |
| Cn1nccc1-c1nc(NC2(C)CC2)c2ccncc2n1 [Example 172, 2-(1-methyl-1H-pyrazol-5-yl)-N-(1-methylcyclopropyl)pyrido[3,4-d]pyrimidin-4-amine] | > 10 | 0.017 | > 20 |  |  |
| CC1(Nc2nc(-c3cn[nH]c3)nc3cnccc23)CCC1 [Example 158, N-(1-methylcyclobutyl)-2-(1H-pyrazol-4-yl)pyrido[3,4-d]pyrimidin-4-amine] | 11.2 | 0.008 | 6.29 |  |  |
| CCCNc1nc(-n2ccc3ncccc32)nc2cnccc12 [Example 156, N-propyl-2-{1H-pyrrolo[3,2-b]pyridin-1-yl}pyrido[3,4-d]pyrimidin-4-amine] | > 100 | 0.006 | 90.1 |  |  |
| CN(C)c1nc(-c2ccncc2)nc2cnccc12 [Example 88, N,N-dimethyl-2-(pyridin-4-yl)pyrido[3,4-d]pyrimidin-4-amine] | 69.8 | 0.037 | 29.3 |  |  |
